Measurements as given in US20100298141A1, “SUBSTITUTED PYRIDINE N-OXIDE HERBICIDES” (E. I. DU PONT DE NEMOURS AND COMPANY, priority 2007, published 2010).

Assays:
woolly cupgrass = test: Test C pre-/postemergence test; assay type: in vivo, Eriochloa villosa; conditions: for Plant response rating, Cupgrass, Woolly: 31 g ai/ha, scale 0 to 100 (0 no effect, 100 complete control)
Summary of the method: (§1)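 Compounds in a non-phytotoxic solvent with surfactant applied preemergence to seeded pots and, at the same time, postemergence to plants 2–18 cm tall (1- to 4-leaf stage). Paddy tests: pots flooded to 3 cm, compound applied into the water, depth held throughout.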

lambsquarters = test: Test C pre-/postemergence test; assay type: in vivo, Chenopodium album; conditions: for Plant response rating, Lambsquarters: 31 g ai/ha, scale 0 to 100 (0 no effect, 100 complete control)
Summary of the method: as §1

soybean = test: Test C pre-/postemergence test; assay type: in vivo, Glycine max
Summary of the method: as §1

wild oat = test: Test C pre-/postemergence test; assay type: in vivo, Avena fatua; conditions: for Plant response rating, Oat, Wild: 31 g ai/ha, scale 0 to 100 (0 no effect, 100 complete control)
Summary of the method: as §1

green foxtail = test: Test C pre-/postemergence test; assay type: in vivo, Setaria viridis; conditions: for Plant response rating, Foxtail, Green: 31 g ai/ha, scale 0 to 100 (0 no effect, 100 complete control)
Summary of the method: as §1

duck salad = test: Test C flooded paddy test; assay type: in vivo, Heteranthera limosa; conditions: Flood
Summary of the method: (§2)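 Pots were flooded to 3 cm above the soil surface at treatment, compound applied directly to the paddy water, and that depth held throughout. Plants were kept in a greenhouse for 13 to 15 days, then visually rated against untreated controls.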

rice = test: Test C flooded paddy test; assay type: in vivo, Oryza sativa; conditions: Flood
Summary of the method: as §2

bermudagrass = test: Test C pre-/postemergence test; assay type: in vivo, Cynodon dactylon; conditions: for Plant response rating, Bermudagrass: 31 g ai/ha
Summary of the method: as §1

yellow nutsedge = test: Test C pre-/postemergence test; assay type: in vivo, Cyperus esculentus; conditions: for Plant response rating, Nutsedge, Yellow: 31 g ai/ha, scale 0 to 100 (0 no effect, 100 complete control)
Summary of the method: as §1

kochia = test: Test C pre-/postemergence test; assay type: in vivo, Kochia scoparia; conditions: for Plant response rating, Kochia: 31 g ai/ha, scale 0 to 100 (0 no effect, 100 complete control)
Summary of the method: as §1

blackgrass = test: Test C pre-/postemergence test; assay type: in vivo, Alopecurus myosuroides; conditions: for Plant response rating, Blackgrass: 31 g ai/ha, scale 0 to 100 (0 no effect, 100 complete control)
Summary of the method: as §1

downy brome = test: Test C pre-/postemergence test; assay type: in vivo, Bromus tectorum; conditions: for Plant response rating, Bromegrass, Downy: 31 g ai/ha, scale 0 to 100 (0 no effect, 100 complete control)
Summary of the method: as §1

redroot pigweed = test: Test A pre-/postemergence greenhouse test; assay type: in vivo, Amaranthus retroflexus; conditions: for Plant response rating, Pigweed: 0 to 100 scale where 0 is no effect and 100 is complete control; for Pigweed plant response rating: 0 to 100 scale
Summary of the method: (§3)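 Two application timings were run side by side in the greenhouse. Before emergence, compound went onto the soil surface of loam–sand pots as a directed spray; after emergence, plants at 2–10 cm and the one- to two-leaf stage were treated. Visual injury versus controls was rated at approximately day ten.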

morningglory = test: Test A pre-/postemergence greenhouse test; assay type: in vivo, Ipomoea spp.; conditions: for Plant response rating, Morningglory: 0 to 100 scale where 0 is no effect and 100 is complete control; for Morningglory plant response rating: 0 to 100 scale
Summary of the method: as §3

cocklebur = test: Test C pre-/postemergence test; assay type: in vivo, Xanthium strumarium; conditions: for Plant response rating, Cocklebur: 31 g ai/ha, scale 0 to 100 (0 no effect, 100 complete control)
Summary of the method: as §1

catchweed bedstraw = test: Test C pre-/postemergence test; assay type: in vivo, Galium aparine; conditions: for Plant response rating, Galium: 31 g ai/ha, scale 0 to 100 (0 no effect, 100 complete control)
Summary of the method: as §1

[1] = 62 g ai/ha, Preemergence, scale 0 to 100
[2] = 125 g ai/ha, preemergence, scale 0 (no effect) to 100 (complete control)
[3] = preemergence, 250 g ai/ha, scale 0 (no effect) to 100 (complete control)
[4] = 62 g ai/ha, scale 0 to 100 (0 no effect, 100 complete control)
[5] = 250 g ai/ha, scale 0 to 100, 0 no effect, 100 complete control, 13 to 15 days
[6] = 62 g ai/ha, Preemergence, scale 0 to 100 (0 no effect, 100 complete control)
[7] = Preemergence, scale 0 to 100 (0 no effect, 100 complete control)
[8] = Postemergence, 500 g ai/ha, 0 is no effect, 100 is complete control
[9] = Preemergence, 125 g ai/ha, 0 no effect, 100 complete control
[10] = 31 g ai/ha, scale 0 to 100 (0 no effect, 100 complete control)
[11] = 62 g ai/ha, scale 0 to 100, 0 no effect, 100 complete control, 13 to 15 days
[12] = 125 g ai/ha, scale 0 to 100, 0 no effect, 100 complete control, 13 to 15 days
[13] = Postemergence, 125 g ai/ha, 0 is no effect, 100 is complete control

CCc1cc[n+]([O-])c(S(=O)(=O)Cc2c(C(F)(F)F)nn(C)c2OCC(F)(F)F)c1 [Compound 60]
60: Plant response rating, Pigweed (redroot pigweed; Postemergence, 125 g ai/ha) | Morningglory plant response rating (morningglory; [8])
98: Oat, Wild plant response rating (wild oat; [3])
55: Bromegrass, Downy plant response rating (downy brome; [1]) | Bromegrass, Downy plant response rating (downy brome; [2])
20: Plant response rating, Rice (rice; [5]) | Plant response rating, Nutsedge, Yellow (yellow nutsedge; Preemergence)
90: Oat, Wild plant response rating (wild oat; [2]) | Blackgrass plant response rating (blackgrass; [1]) | Bromegrass, Downy plant response rating (downy brome; [3])
70: Morningglory plant response rating (morningglory; [9])
85: Soybean plant response rating (soybean; [3]) | Oat, Wild plant response rating (wild oat; [1]) | Plant response rating, Foxtail, Green (green foxtail; Preemergence) | Plant response rating, Blackgrass (blackgrass; Preemergence)
80: Plant response rating, Kochia (kochia; Preemergence) | Pigweed plant response rating (redroot pigweed; [8])
100: Cupgrass, Woolly plant response rating (woolly cupgrass; [1]) | Cupgrass, Woolly plant response rating (woolly cupgrass; [2]) | Plant response rating, Cupgrass, Woolly (woolly cupgrass; Preemergence) | Cupgrass, Woolly plant response rating (woolly cupgrass; [3]) | Lambsquarters plant response rating (lambsquarters; [1]) | Lambsquarters plant response rating (lambsquarters; [2]) | Plant response rating, Lambsquarters (lambsquarters; Preemergence) | Lambsquarters plant response rating (lambsquarters; [3]) | Foxtail, Green plant response rating (green foxtail; [1]) | Foxtail, Green plant response rating (green foxtail; [2]) | Foxtail, Green plant response rating (green foxtail; [3]) | Bermudagrass plant response rating (bermudagrass; [6]) | Bermudagrass plant response rating (bermudagrass; [2]) | Plant response rating, Bermudagrass (bermudagrass; [7]) | Bermudagrass plant response rating (bermudagrass; [3]) | Nutsedge, Yellow plant response rating (yellow nutsedge; [2]) | Nutsedge, Yellow plant response rating (yellow nutsedge; [3]) | Kochia plant response rating (kochia; [1]) | Kochia plant response rating (kochia; [2]) | Kochia plant response rating (kochia; [3]) | Blackgrass plant response rating (blackgrass; [2]) | Blackgrass plant response rating (blackgrass; [3]) | Pigweed plant response rating (redroot pigweed; [9]) | Plant response rating, Pigweed (redroot pigweed; Preemergence, 500 g ai/ha) | Plant response rating, Morningglory (morningglory; Preemergence, 500 g ai/ha) | Galium plant response rating (catchweed bedstraw; [1]) | Galium plant response rating (catchweed bedstraw; [2]) | Galium plant response rating (catchweed bedstraw; [3])
0: Plant response rating, Ducksalad (duck salad; [4]) | Plant response rating, Rice (rice; [4]) | Plant response rating, Bromegrass, Downy (downy brome; Preemergence) | Cocklebur plant response rating (cocklebur; [1]) | Cocklebur plant response rating (cocklebur; [2]) | Plant response rating, Cocklebur (cocklebur; Preemergence) | Cocklebur plant response rating (cocklebur; [3]) | Plant response rating, Galium (catchweed bedstraw; Preemergence)
50: Soybean plant response rating (soybean; [1]) | Soybean plant response rating (soybean; [2]) | Nutsedge, Yellow plant response rating (yellow nutsedge; [1]) | Plant response rating, Morningglory (morningglory; Postemergence, 125 g ai/ha)
40: Plant response rating, Oat, Wild (wild oat; Preemergence) | Plant response rating, Ducksalad (duck salad; [5])

Cc1cc[n+]([O-])c(S(=O)(=O)C(Cl)c2c(C(F)(F)F)nn(C)c2OCC(F)(F)F)c1 (racemic) [Compound 37]
85: Plant response rating, Ducksalad (duck salad; [12]) | Plant response rating, Bermudagrass (bermudagrass; [7])
70: Plant response rating, Rice (rice; [5])
60: Oat, Wild plant response rating (wild oat; [3]) | Bromegrass, Downy plant response rating (downy brome; [3])
90: Bermudagrass plant response rating (bermudagrass; [6])
20: Plant response rating, Ducksalad (duck salad; [10]) | Pigweed plant response rating (redroot pigweed; [13]) | Morningglory plant response rating (morningglory; [8])
10: Soybean plant response rating (soybean; [2]) | Soybean plant response rating (soybean; [3])
25: Plant response rating, Rice (rice; [12])
15: Plant response rating, Rice (rice; [10]) | Plant response rating, Rice (rice; [11])
0: Plant response rating, Lambsquarters (lambsquarters; Preemergence) | Plant response rating, Soybean (soybean; Preemergence, 31 g ai/ha, scale 0 to 100 (0 no effect, 100 complete control)) | Plant response rating, Oat, Wild (wild oat; Preemergence) | Plant response rating, Foxtail, Green (green foxtail; Preemergence) | Nutsedge, Yellow plant response rating (yellow nutsedge; [1]) | Plant response rating, Nutsedge, Yellow (yellow nutsedge; Preemergence) | Plant response rating, Kochia (kochia; Preemergence) | Plant response rating, Bromegrass, Downy (downy brome; Preemergence) | Morningglory plant response rating (morningglory; [13]) | Morningglory plant response rating (morningglory; [9]) | Cocklebur plant response rating (cocklebur; [1]) | Cocklebur plant response rating (cocklebur; [2]) | Plant response rating, Cocklebur (cocklebur; Preemergence) | Cocklebur plant response rating (cocklebur; [3])
40: Plant response rating, Cupgrass, Woolly (woolly cupgrass; Preemergence) | Plant response rating, Ducksalad (duck salad; [11]) | Kochia plant response rating (kochia; [1])
95: Plant response rating, Ducksalad (duck salad; [5]) | Plant response rating, Blackgrass (blackgrass; Preemergence)
80: Cupgrass, Woolly plant response rating (woolly cupgrass; [1]) | Lambsquarters plant response rating (lambsquarters; [1]) | Nutsedge, Yellow plant response rating (yellow nutsedge; [2]) | Nutsedge, Yellow plant response rating (yellow nutsedge; [3]) | Plant response rating, Morningglory (morningglory; Preemergence, 500 g ai/ha) | Plant response rating, Galium (catchweed bedstraw; Preemergence) | Galium plant response rating (catchweed bedstraw; [3])
98: Cupgrass, Woolly plant response rating (woolly cupgrass; [2])
50: Pigweed plant response rating (redroot pigweed; [8])
100: Cupgrass, Woolly plant response rating (woolly cupgrass; [3]) | Lambsquarters plant response rating (lambsquarters; [2]) | Lambsquarters plant response rating (lambsquarters; [3]) | Foxtail, Green plant response rating (green foxtail; [3]) | Bermudagrass plant response rating (bermudagrass; [2]) | Bermudagrass plant response rating (bermudagrass; [3]) | Kochia plant response rating (kochia; [2]) | Kochia plant response rating (kochia; [3]) | Blackgrass plant response rating (blackgrass; [3]) | Pigweed plant response rating (redroot pigweed; [9]) | Plant response rating, Pigweed (redroot pigweed; Preemergence, 500 g ai/ha)
